Test system: A549
Experiment: Cytotoxicity against human A549 cells after 72 hrs by SRB assay
Assay type: functional, cell-based
Conditions: A549, 72 h

SMILES	IC50
CC[C@@]1(O)C(=O)OCc2c1cc1n(c2=O)Cc2c-1nc1ccccc1c2CN1CCN(/C(Cc2ccccc2)=N\S(=O)(=O)c2cccs2)CC1	650 nM
CC[C@@]1(O)C(=O)OCc2c1cc1n(c2=O)Cc2c-1nc1ccccc1c2CN1CCN(/C(Cc2ccc(OC)cc2)=N\S(=O)(=O)c2ccc3ccccc3c2)CC1	740 nM
CC[C@@]1(O)C(=O)OCc2c1cc1n(c2=O)Cc2c-1nc1ccccc1c2CN1CCN(/C(Cc2ccccc2)=N\S(=O)(=O)c2cccnc2)CC1	760 nM
CC[C@@]1(O)C(=O)OCc2c1cc1n(c2=O)Cc2c-1nc1ccccc1c2CN1CCN(/C(Cc2ccccc2)=N\S(=O)(=O)c2ccc3ccccc3c2)CC1	3150 nM
CC[C@@]1(O)C(=O)OCc2c1cc1n(c2=O)Cc2c-1nc1ccccc1c2CN1CCN(/C(Cc2ccc(OC)cc2)=N\S(=O)(=O)c2ccc([N+](=O)[O-])cc2)CC1	2930 nM
CC[C@@]1(O)C(=O)OCc2c1cc1n(c2=O)Cc2c-1nc1ccccc1c2CN1CCN(/C(Cc2ccc(F)cc2)=N\S(=O)(=O)c2cccnc2)CC1	2590 nM
CC[C@@]1(O)C(=O)OCc2c1cc1n(c2=O)Cc2c-1nc1ccccc1c2CN1CCN(/C(Cc2ccc(F)cc2)=N\S(=O)(=O)CC)CC1	500 nM
CC[C@@]1(O)C(=O)OCc2c1cc1n(c2=O)Cc2c-1nc1ccccc1c2CN1CCN(/C(Cc2ccccc2)=N\S(C)(=O)=O)CC1	650 nM
CC[C@@]1(O)C(=O)OCc2c1cc1n(c2=O)Cc2c-1nc1ccccc1c2CN1CCN(/C(Cc2ccccc2)=N\S(=O)(=O)c2ccc(Cl)cc2)CC1	640 nM
CC[C@@]1(O)C(=O)OCc2c1cc1n(c2=O)Cc2c-1nc1ccccc1c2CN1CCN(/C(Cc2ccc(F)cc2)=N\S(=O)(=O)c2ccc([N+](=O)[O-])cc2)CC1	630 nM

Test system: MDA-MB-231
Experiment: Cytotoxicity against human MDA-MB-231 cells after 72 hrs by SRB assay
Assay type: functional, cell-based
Conditions: MDA-MB-231, 72 h

SMILES	IC50
CC[C@@]1(O)C(=O)OCc2c1cc1n(c2=O)Cc2c-1nc1ccccc1c2CN1CCN(/C(Cc2ccccc2)=N\S(=O)(=O)c2cccs2)CC1	3.99 µM
CC[C@@]1(O)C(=O)OCc2c1cc1n(c2=O)Cc2c-1nc1ccccc1c2CN1CCN(/C(Cc2ccc(OC)cc2)=N\S(=O)(=O)c2ccc3ccccc3c2)CC1	9.36 µM
CC[C@@]1(O)C(=O)OCc2c1cc1n(c2=O)Cc2c-1nc1ccccc1c2CN1CCN(/C(Cc2ccccc2)=N\S(=O)(=O)c2cccnc2)CC1	3.84 µM
CC[C@@]1(O)C(=O)OCc2c1cc1n(c2=O)Cc2c-1nc1ccccc1c2CN1CCN(/C(Cc2ccccc2)=N\S(=O)(=O)c2ccc3ccccc3c2)CC1	11.3 µM
CC[C@@]1(O)C(=O)OCc2c1cc1n(c2=O)Cc2c-1nc1ccccc1c2CN1CCN(/C(Cc2ccc(OC)cc2)=N\S(=O)(=O)c2ccc([N+](=O)[O-])cc2)CC1	9.75 µM
CC[C@@]1(O)C(=O)OCc2c1cc1n(c2=O)Cc2c-1nc1ccccc1c2CN1CCN(/C(Cc2ccc(F)cc2)=N\S(=O)(=O)c2cccnc2)CC1	6.31 µM
CC[C@@]1(O)C(=O)OCc2c1cc1n(c2=O)Cc2c-1nc1ccccc1c2CN1CCN(/C(Cc2ccc(F)cc2)=N\S(=O)(=O)CC)CC1	2.51 µM
CC[C@@]1(O)C(=O)OCc2c1cc1n(c2=O)Cc2c-1nc1ccccc1c2CN1CCN(/C(Cc2ccccc2)=N\S(C)(=O)=O)CC1	1.57 µM
CC[C@@]1(O)C(=O)OCc2c1cc1n(c2=O)Cc2c-1nc1ccccc1c2CN1CCN(/C(Cc2ccccc2)=N\S(=O)(=O)c2ccc(Cl)cc2)CC1	5.01 µM
CC[C@@]1(O)C(=O)OCc2c1cc1n(c2=O)Cc2c-1nc1ccccc1c2CN1CCN(/C(Cc2ccc(F)cc2)=N\S(=O)(=O)c2ccc([N+](=O)[O-])cc2)CC1	3.54 µM

Test system: KB
Experiment: Cytotoxicity against human KB cells after 72 hrs by SRB assay
Assay type: functional, cell-based
Conditions: not given

SMILES	IC50
CC[C@@]1(O)C(=O)OCc2c1cc1n(c2=O)Cc2c-1nc1ccccc1c2CN1CCN(/C(Cc2ccccc2)=N\S(=O)(=O)c2cccs2)CC1	590 nM
CC[C@@]1(O)C(=O)OCc2c1cc1n(c2=O)Cc2c-1nc1ccccc1c2CN1CCN(/C(Cc2ccc(OC)cc2)=N\S(=O)(=O)c2ccc3ccccc3c2)CC1	840 nM
CC[C@@]1(O)C(=O)OCc2c1cc1n(c2=O)Cc2c-1nc1ccccc1c2CN1CCN(/C(Cc2ccccc2)=N\S(=O)(=O)c2cccnc2)CC1	720 nM
CC[C@@]1(O)C(=O)OCc2c1cc1n(c2=O)Cc2c-1nc1ccccc1c2CN1CCN(/C(Cc2ccccc2)=N\S(=O)(=O)c2ccc3ccccc3c2)CC1	2110 nM
CC[C@@]1(O)C(=O)OCc2c1cc1n(c2=O)Cc2c-1nc1ccccc1c2CN1CCN(/C(Cc2ccc(OC)cc2)=N\S(=O)(=O)c2ccc([N+](=O)[O-])cc2)CC1	1060 nM
CC[C@@]1(O)C(=O)OCc2c1cc1n(c2=O)Cc2c-1nc1ccccc1c2CN1CCN(/C(Cc2ccc(F)cc2)=N\S(=O)(=O)c2cccnc2)CC1	6760 nM
CC[C@@]1(O)C(=O)OCc2c1cc1n(c2=O)Cc2c-1nc1ccccc1c2CN1CCN(/C(Cc2ccc(F)cc2)=N\S(=O)(=O)CC)CC1	330 nM
CC[C@@]1(O)C(=O)OCc2c1cc1n(c2=O)Cc2c-1nc1ccccc1c2CN1CCN(/C(Cc2ccccc2)=N\S(C)(=O)=O)CC1	130 nM
CC[C@@]1(O)C(=O)OCc2c1cc1n(c2=O)Cc2c-1nc1ccccc1c2CN1CCN(/C(Cc2ccccc2)=N\S(=O)(=O)c2ccc(Cl)cc2)CC1	740 nM
CC[C@@]1(O)C(=O)OCc2c1cc1n(c2=O)Cc2c-1nc1ccccc1c2CN1CCN(/C(Cc2ccc(F)cc2)=N\S(=O)(=O)c2ccc([N+](=O)[O-])cc2)CC1	4430 nM

Test system: MCF7
Experiment: Cytotoxicity against human MCF7 cells after 72 hrs by SRB assay
Assay type: functional, cell-based
Conditions: MCF7, 72 h

SMILES	IC50
CC[C@@]1(O)C(=O)OCc2c1cc1n(c2=O)Cc2c-1nc1ccccc1c2CN1CCN(/C(Cc2ccccc2)=N\S(=O)(=O)c2cccs2)CC1	1.25 µM
CC[C@@]1(O)C(=O)OCc2c1cc1n(c2=O)Cc2c-1nc1ccccc1c2CN1CCN(/C(Cc2ccc(OC)cc2)=N\S(=O)(=O)c2ccc3ccccc3c2)CC1	6.56 µM
CC[C@@]1(O)C(=O)OCc2c1cc1n(c2=O)Cc2c-1nc1ccccc1c2CN1CCN(/C(Cc2ccccc2)=N\S(=O)(=O)c2cccnc2)CC1	3.4 µM
CC[C@@]1(O)C(=O)OCc2c1cc1n(c2=O)Cc2c-1nc1ccccc1c2CN1CCN(/C(Cc2ccccc2)=N\S(=O)(=O)c2ccc3ccccc3c2)CC1	9.37 µM
CC[C@@]1(O)C(=O)OCc2c1cc1n(c2=O)Cc2c-1nc1ccccc1c2CN1CCN(/C(Cc2ccc(OC)cc2)=N\S(=O)(=O)c2ccc([N+](=O)[O-])cc2)CC1	8.36 µM
CC[C@@]1(O)C(=O)OCc2c1cc1n(c2=O)Cc2c-1nc1ccccc1c2CN1CCN(/C(Cc2ccc(F)cc2)=N\S(=O)(=O)c2cccnc2)CC1	6.05 µM
CC[C@@]1(O)C(=O)OCc2c1cc1n(c2=O)Cc2c-1nc1ccccc1c2CN1CCN(/C(Cc2ccc(F)cc2)=N\S(=O)(=O)CC)CC1	1.6 µM
CC[C@@]1(O)C(=O)OCc2c1cc1n(c2=O)Cc2c-1nc1ccccc1c2CN1CCN(/C(Cc2ccccc2)=N\S(C)(=O)=O)CC1	1.59 µM
CC[C@@]1(O)C(=O)OCc2c1cc1n(c2=O)Cc2c-1nc1ccccc1c2CN1CCN(/C(Cc2ccccc2)=N\S(=O)(=O)c2ccc(Cl)cc2)CC1	3.19 µM
CC[C@@]1(O)C(=O)OCc2c1cc1n(c2=O)Cc2c-1nc1ccccc1c2CN1CCN(/C(Cc2ccc(F)cc2)=N\S(=O)(=O)c2ccc([N+](=O)[O-])cc2)CC1	2.18 µM

Test system: not listed separately
Experiment: Cytotoxicity against human KBVIN cells after 72 hrs by SRB assay
Assay type: functional, cell-based
Conditions: not given

SMILES	IC50
CC[C@@]1(O)C(=O)OCc2c1cc1n(c2=O)Cc2c-1nc1ccccc1c2CN1CCN(/C(Cc2ccccc2)=N\S(=O)(=O)c2cccs2)CC1	1270 nM
CC[C@@]1(O)C(=O)OCc2c1cc1n(c2=O)Cc2c-1nc1ccccc1c2CN1CCN(/C(Cc2ccc(OC)cc2)=N\S(=O)(=O)c2ccc3ccccc3c2)CC1	3660 nM
CC[C@@]1(O)C(=O)OCc2c1cc1n(c2=O)Cc2c-1nc1ccccc1c2CN1CCN(/C(Cc2ccccc2)=N\S(=O)(=O)c2cccnc2)CC1	2090 nM
CC[C@@]1(O)C(=O)OCc2c1cc1n(c2=O)Cc2c-1nc1ccccc1c2CN1CCN(/C(Cc2ccccc2)=N\S(=O)(=O)c2ccc3ccccc3c2)CC1	890 nM
CC[C@@]1(O)C(=O)OCc2c1cc1n(c2=O)Cc2c-1nc1ccccc1c2CN1CCN(/C(Cc2ccc(OC)cc2)=N\S(=O)(=O)c2ccc([N+](=O)[O-])cc2)CC1	970 nM
CC[C@@]1(O)C(=O)OCc2c1cc1n(c2=O)Cc2c-1nc1ccccc1c2CN1CCN(/C(Cc2ccc(F)cc2)=N\S(=O)(=O)c2cccnc2)CC1	5820 nM
CC[C@@]1(O)C(=O)OCc2c1cc1n(c2=O)Cc2c-1nc1ccccc1c2CN1CCN(/C(Cc2ccc(F)cc2)=N\S(=O)(=O)CC)CC1	970 nM
CC[C@@]1(O)C(=O)OCc2c1cc1n(c2=O)Cc2c-1nc1ccccc1c2CN1CCN(/C(Cc2ccccc2)=N\S(C)(=O)=O)CC1	3820 nM
CC[C@@]1(O)C(=O)OCc2c1cc1n(c2=O)Cc2c-1nc1ccccc1c2CN1CCN(/C(Cc2ccccc2)=N\S(=O)(=O)c2ccc(Cl)cc2)CC1	1550 nM
CC[C@@]1(O)C(=O)OCc2c1cc1n(c2=O)Cc2c-1nc1ccccc1c2CN1CCN(/C(Cc2ccc(F)cc2)=N\S(=O)(=O)c2ccc([N+](=O)[O-])cc2)CC1	850 nM

Reference: ChEMBL document CHEMBL4043152, “Design, synthesis, and cytotoxic activity of novel 7-substituted camptothecin derivatives incorporating piperazinyl-sulfonylamidine moieties” (Bioorg Med Chem Lett, 2017)
